This passage reports AC50 results from patent publication US20230104936A1, “TRPML MODULATORS” (Casma Therapeutics, Inc., priority 2019, published 2023).

The structures appear in SMILES notation. Counter-ions that a name gives are not always drawn.

The test concerns TFEB. Description: TFEB nuclear translocation assay, HeLa wt cells. It counts as cell-based. To be noted: 2 hrs compound treatment, Table 1 does not say HeLa wt or TRPML1 KO. An outline of the steps:
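Using 20× epifluorescence of fixed, anti-TFEB-stained HeLa wt cells treated 2 hrs with compound, nuclear versus perinuclear ring intensity was quantified over four fields per well, yielding AC50 values.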

With `CCN1CCN(c2c(Cl)cccc2NS(=O)(=O)c2ccc3c(c2)CCC3)CC1` [Compound A-300, N-[3-chloro-2-(4-ethylpiperazin-1-yl)phenyl]-2,3-dihydro-1H-indene-5-sulfonamide hydrochloride], the AC50 (Homo sapiens, HeLa, 2 h) was in the range of 2010 to 8000 nM. Same read-out and setting: next, `CS(=O)(=O)c1ccc(S(=O)(=O)Nc2ccccc2N2CCC3(CC2)OCCc2ccccc23)cc1` [Compound A-402, N-(2-{3,4-dihydrospiro[2-benzopyran-1,4′-piperidin]-1′-yl}phenyl)-4-methanesulfonylbenzene-1-sulfonamide]: 2010 to 8000 nM.

In the case of `CN(C)S(=O)(=O)c1ccc(S(=O)(=O)Nc2ccccc2N2C3CC2CN(c2ccc(Cl)cc2F)C3)cc1` [Compound A-28, N4-{2-[3-(4-chloro-2-fluorophenyl)-3,6-diazabicyclo[3.1.1]heptan-6-yl]phenyl}-N1,N1-dimethylbenzene-1,4-disulfonamide], the half-maximal activity concentration (AC50) was at most 2000 nM. As for `COCC1(C)CCN(c2ccccc2NS(=O)(=O)c2ccc(Br)cc2)CC1` [Compound A-623, 4-bromo-N-{2-[4-(methoxymethyl)-4-methylpiperidin-1-yl]phenyl}benzene-1-sulfonamide], the half-maximal activity concentration (AC50) (Homo sapiens, HeLa, 2 h) was in the range of 2010 to 8000 nM. With `CN1CC(c2ccccc2)C2(CCN(c3ccccc3NS(=O)(=O)c3ccc(S(=O)(=O)N(C)C)cc3)CC2)C1` (stereo not drawn) [Compound A-302, N1,N1-dimethyl-N4-(2-{2-methyl-4-phenyl-2,8-diazaspiro[4.5]decan-8-yl}phenyl)benzene-1,4-disulfonamide], the AC50 (Homo sapiens, HeLa, 2 h) was at least 10000 nM. Same read-out and setting: the value for `CC(c1cccnc1N1CCC(CN2CCC(F)(F)CC2)CC1)S(=O)(=O)c1ccc(S(=O)(=O)N(C)C)cc1` (stereo not drawn) [Compound A-987, 4-[1-(2-{4-[(4,4-difluoropiperidin-1-yl)methyl]piperidin-1-yl}pyridin-3-yl)ethanesulfonyl]-N,N-dimethylbenzene-1-sulfonamide] was at most 2000 nM; that for `C[C@@H]1CN(CC2CCN(c3c(F)cccc3NS(=O)(=O)c3ccc4c(c3)CCC4)CC2)C[C@H](C)O1` [Compound A-759, N-[2-(4-{[(2R,6S)-2,6-dimethylmorpholin-4-yl]methyl}piperidin-1-yl)-3-fluorophenyl]-2,3-dihydro-1H-indene-5-sulfonamide] was at most 2000 nM. Still for that read-out and setting: next, `CC(C)(C)C(=O)N1CCN(c2ccccc2NS(=O)(=O)c2ccc3c(c2)CC(Cl)(Cl)C3=O)CC1` [Compound A-534, 2,2-dichloro-N-{2-[4-(2,2-dimethylpropanoyl)piperazin-1-yl]phenyl}-1-oxo-2,3-dihydro-1H-indene-5-sulfonamide]: 2010 to 8000 nM; `CN(C)CC1(c2ccc(F)cc2F)CCN(c2ccccc2NS(=O)(=O)c2ccc(S(=O)(=O)N(C)C)cc2)CC1` [Compound A-221, N4-{2-[4-(2,4-difluorophenyl)-4-[(dimethylamino)methyl]piperidin-1-yl]phenyl}-N1,N1-dimethylbenzene-1,4-disulfonamide]: at most 2000 nM. Same read-out and setting: the value for `C[C@@H]1CN(CC2CCN(c3c(F)cccc3NS(=O)(=O)c3ccc(C(F)(F)C4CC4)cc3)CC2)C[C@H](C)O1` [Compound A-814, 4-(cyclopropyldifluoromethyl)-N-[2-(4-{[(2R,6S)-2,6-dimethylmorpholin-4-yl]methyl}piperidin-1-yl)-3-fluorophenyl]benzene-1-sulfonamide] was at most 2000 nM; that for `CN(C)S(=O)(=O)c1ccc(S(=O)(=O)Nc2ccccc2N2CCN(C(=O)C3(CF)CCC3)CC2)cc1` [Compound A-430, N4-(2-{4-[1-(fluoromethyl)cyclobutanecarbonyl]piperazin-1-yl}phenyl)-N1,N1-dimethylbenzene-1,4-disulfonamide] was 2010 to 8000 nM; that for `CC(=O)N1CCC(S(=O)(=O)Nc2ccccc2N2CCN(c3ccc(Cl)cc3F)CC2)CC1` [Compound A-17, 1-acetyl-N-{2-[4-(4-chloro-2-fluorophenyl)piperazin-1-yl]phenyl}piperidine-4-sulfonamide] was 2010 to 8000 nM.
